“Also recorded” adds a separate entry of the source. Read-outs that look alike come from different tables or passages of the source.
Experiments:
HCT116 [1] = test: MTS antiproliferative assay, HCT116 (with or without added metal ions); format: cell-based, human; settings: for Selectivity index, calculated for HCT116: versus NHDF
Experimental: (§1) The cells were seeded in 96-well plates (Nunc) at a density of 3,500 cells/well (HCT116 and MCF-7) and 3,000 cells/well (NHDF) and incubated at 37° C for 24 h. The assay was performed following a 96 h incubation with varying concentrations of the compounds that were being tested. Then, 20 µL of CellTiter 96® AQueous One Solution-MTS (Promega) was added to each well (with 100 µL DMEM without phenol red) and incubated for 1 h at 37° C. The optical densities of the samples were analyzed at 490 nm using a multi-plate reader (Synergy 4, Bio Tek). Results were expressed as a percentage of the control and calculated as the inhibitory concentration (IC50) values (using GraphPad Prism 5). The IC50 parameter was defined as the compound concentration that was necessary to reduce the proliferation of cells to 50% of the untreated control. Each individual compound was tested in triplicate in a single experiment with each experiment being repeated three or four times.
(§2) The HCT116 and MCF-7 cells were seeded in 96-well plates (Nunc) at a density of 3,500 cells/well and incubated at 37° C for 24 h. The MTS assay was performed following a 96 h incubation with varying concentrations of the tested compounds. Additionally, a 20 µM solution of CuSO4, FeSO4 or FeCl3 was added into wells with the tested compounds. The results were expressed as a percentage of the control and calculated as the inhibitory concentration (IC50) values using GraphPad Prism 5. Each individual compound was tested in triplicate in a single experiment with each experiment being repeated three times.

MCF-7 = test: MTS antiproliferative assay, MCF-7 (with or without added metal ions); format: cell-based, human; settings: for improvement in cytotoxicity after interacting with Cu^2+: MCF-7 cells, 20 µM CuSO4; for Selectivity index, calculated for MCF-7: versus NHDF
Experimental: as §1, §2

MnSOD = test: mRNA expression (Real-Time PCR) of MnSOD; format: cell-based, human; settings: HCT116, TSC 1 µM, 12 or 24 h
Experimental: (§3) The HCT116 cells were seeded in 3 cm Petri dishes (Nunc) at a density of 0.5·10^6 cells/well and incubated overnight. Next, the medium was removed and solutions of TSC (1 μM) and DOX (5 μM) were added. After 12 or 24 h, total RNA was isolated from the cells using TRIzol Reagent (Ambion) according to the manufacturer’s instructions. cDNA synthesis was performed with 5 μg of total RNA using a GoScript™ Reverse Transcriptase kit (Promega) and Oligo(dT)23 Primers (Sigma). The Real-Time PCR was performed with a CTX96 Touch™ Real-Time PCR Detection System (Biorad) in a 20 μL reaction volume. The reaction consisted of PowerUp™ SYBR® Green Master Mix (Applied Biosystems), a primer pair mix (0.5 μM each) and 1 μL of cDNA. All primer pair sequences were purchased from Sigma-Aldrich and are listed in Supplementary Table 2. The experiment was performed under the following conditions: initial denaturation at 95° C for 120 sec; followed by 40 denaturation cycles at 95° C, 15 sec; annealing (primer-specific temperature for 30 sec) and extension at 72° C for 60 sec. Data was analyzed based on a comparison of the expression of the target genes to a reference gene – β-actin, using the 2^–ΔΔCT method. The experiments were performed at least three times.

HCT116 cells = test: Cell cycle assay (Muse Cell-Cycle Kit); format: cell-based, human; settings: HCT116, TSC 1 µM, 48 h
Experimental: The HCT116 cells were seeded in 3 cm Petri dishes (Nunc) at a density of 0.25·10^6 cells/well and incubated at 37° C for 24 h. […] After a 48 h treatment, assays were performed using a Muse Cell-Cycle Kit (Millipore) according to the manufacturer’s instructions. Briefly, cells were collected, washed with cold PBS and centrifuged at 300 g. Then, the cells were fixed in ice cold 70% ethanol and stored at –20° C overnight. Afterwards, the cells were centrifuged and resuspended in 200 μL of Muse™ Cell Cycle Reagent and incubated for 30 min at room temperature in the dark. After staining, the cells were processed for cell cycle analysis using a Muse Cell Analyzer (Millipore). The experiments were performed at least three times.

calf-thymus DNA (CT-DNA) = test: Intercalation, absorption spectra with CT-DNA; format: binding; settings: for % hypochromism / Changes in absorbance / Δε: bound to CT-DNA; for blue/red shift: wavelengths of maximum absorption, compound alone vs DNA-bound
Experimental: For the DNA binding studies, Calf-thymus DNA (CT-DNA) was purchased from Sigma Aldrich. The lyophilized CT-DNA was dissolved in 10 mM Tris-HCl, pH 7.9, mixed gently and left overnight at 4° C. The purity of the CT-DNA solution was determined by measuring the ratio of UV absorbance at 260 and 280 nm. […] Then, the concentration of CT-DNA was determined from the absorbance at 260 nm using an extinction coefficient of 6600 M^–1cm^–1. The tested TSC and DOX were dissolved in DMSO to a concentration of 8.35 mM, which was then used as the stock solution for preparing the various concentrations (25, 12.5, 6 and 3 µM) in 1 mL in 10 mM of Tris-HCl (pH 7.9). Afterwards, 18 µM CT-DNA was added to the prepared solutions, which were incubated for 1.5 h at 37° C with occasional vortexing. The absorption spectra were measured using a Hitachi U-2900 spectrophotometer in range of 200–500 nm. All absorption spectra were imported and compared in OriginPro 8.0.

HCT116 [2] = system: HCT116; parameters: method as in PMID 25329549; settings: 96 h incubation, MTS; cited from earlier work
NHDF [3] = system: NHDF; parameters: method as in PMID 25329549; settings: 96 h incubation, MTS; cited from earlier work
CAT = test: mRNA expression (Real-Time PCR) of CAT; format: cell-based, human; settings: HCT116, TSC 1 µM, after the first 12 h
Experimental: as §3

Ndrg1 = test: mRNA expression (Real-Time PCR) of Ndrg1; format: cell-based, human; settings: HCT116, TSC 1 µM, 24 h
Experimental: as §3

p21 = test: Western blot of p21; format: cell-based, human; settings: HCT116, 1 µM
Experimental: (§4) The HCT116 cells were seeded in 3 cm Petri dishes (Nunc) at a density of 0.5·10^6 cells/well and incubated overnight. The next day, solutions of TSC (1 μM) and DOX (5 μM) were added and the cells incubated for 24 or 48 h. Cells were harvested by trypsinization and washed with cold PBS. Next, the cells were centrifuged and suspended in an RIPA buffer (Thermo Scientific) containing Halt Protease Inhibitor Cocktail (Thermo Scientific), Halt Phosphatase Inhibitor Cocktail (Thermo Scientific) along with 0.5 M EDTA and lysed for 20 min on ice. Then, the lysates were sonicated, centrifuged at 10,000 rpm for 10 min at 4° C and the supernatants were collected for further analysis. The protein concentration was determined using a Micro BCA™ Protein Assay Kit (Thermo Scientific) according to the manufacturer’s instructions. Equal amounts of the proteins (20 μg) were electrophoresed on SDS-Page gels and transferred onto a nitrocellulose membranes. The membranes were blocked in 5% non-fat milk prepared in PBS containing 0.1% Tween-20 (TPBS) for 1 h. After blocking, the membranes were incubated with specific primary antibodies: cdc2 (#POH1, Cell Signaling), p21^Waf1/Cip1 (#12D1, Cell Signaling), p53 (#1C12, Cell Signaling) and β-Actin (#8H10D10, Cell Signaling) overnight at 4° C, then washed and incubated with horseradish peroxidase (HRP)-conjugated secondary antibodies for 1h at room temperature. All of antibodies were diluted 1:1000 in 5% milk in TPBS. Finally, the membranes were washed and incubated with a SuperSignal™ West Pico Chemiluminescent Substrate (Thermo Scientific). The chemiluminescence signals were captured using a ChemiDoc™ XRS+ System (BioRad). The experiments were performed at least three times. Densitometric analysis was performed using ImageJ 1.41 software (Wayne Rasband, National Institutes of Health, USA).

cdc2 = test: Western blot of cdc2; format: cell-based, human; settings: HCT116, 1 µM
Experimental: as §4

NHDF [4] = test: MTS cytotoxicity assay, normal fibroblasts; format: cell-based, human; settings: Homo sapiens, NHDF, 96 h incubation
Experimental: as §1

[5] = 96 h, 20 µM CuSO4 added, read-out: Activity - IC50 HCT116+ Cu^2+
[6] = 96 h, 20 µM FeCl3 added, read-out: Activity - IC50 HCT116+ Fe^3+
[7] = 96 h, 20 µM CuSO4 added, read-out: Activity - IC50 MCF-7+ Cu^2+
[8] = 96 h, 20 µM FeCl3 added, read-out: Activity - IC50 MCF-7+ Fe^3+
[9] = 96 h incubation, MTS, read-out: Activity - IC50 MCF-7
[10] = Homo sapiens, HCT-116, 96 h, 20 µM CuSO4 added, read-out: Activity - IC50 HCT116+ Cu^2+
[11] = Homo sapiens, HCT-116, 96 h, 20 µM FeCl3 added, read-out: Activity - IC50 HCT116+ Fe^3+
[12] = Homo sapiens, MCF7, 96 h, 20 µM CuSO4 added, read-out: Activity - IC50 MCF-7+ Cu^2+
[13] = Homo sapiens, MCF7, 96 h, 20 µM FeCl3 added, read-out: Activity - IC50 MCF-7+ Fe^3+
[14] = Homo sapiens, MCF7, 96 h incubation, MTS, read-out: Activity - IC50 MCF-7

SMILES | IC50 (HCT116 [1]; [5]) [nM] | IC50 (HCT116 [1]; [6]) [nM] | IC50 (MCF-7; [7]) [nM] | IC50 (MCF-7; [8]) [nM] | IC50 (MCF-7; [9]) [nM] | mRNA expression of MnSOD (MnSOD) | cells in S phase (HCT116 cells) | % hypochromism (calf-thymus DNA (CT-DNA)) [%] | Changes in absorbance (calf-thymus DNA (CT-DNA)) | Δε (calf-thymus DNA (CT-DNA)) [M⁻¹ cm⁻¹] | blue/red shift (calf-thymus DNA (CT-DNA)) [nm] | IC50 (HCT116 [2]) [nM] | IC50 (NHDF [3]) [nM] | improvement in cytotoxicity after interacting with Cu^2+ (MCF-7) | mRNA expression of CAT (CAT) | mRNA expression of Ndrg1 (Ndrg1) | expression of p21 protein (densitometric analysis) (p21) | expression of cdc2 protein (densitometric analysis) (cdc2) | IC50 (HCT116 [1]; [10]) [nM] | IC50 (HCT116 [1]; [11]) [nM] | also measured
Oc1cccc2ccc(C=NNC(=S)N3CCOCC3)nc12 [Compound 2a] | 1.39 ± 0.44 | 7.57 ± 1.19 | 2.39 ± 0.42 | 8.83 ± 1.29 | 10.9 ± 2.85 | slight increase | 33–35% | 15.7 | hypochromism | 1935.6 | 10 | 3.84 ± 1.46 | 10600 |  |  |  |  |  |  |  | 
S=C(NN=C(c1ccccn1)c1ccccn1)N1CCN(c2ccccn2)CC1 [Compound 3b] | 1.56 ± 0.44 | 9.94 ± 2.69 | 0.54 ± 0.15 | 5.35 ± 0.66 | 4.1 ± 0.93 | large drop |  | 31.9 | hypochromism | 6133.3 | 5 | 2.06 ± 0.88 | 160 ± 40 | eight-fold | higher | strongest | increased p21 level, but in a lesser degree | strongest decreasing effect |  |  | cells in G0/G1 phase (HCT116 cells; untreated 72%): 39%
S=C(NN=Cc1ccc2ccccc2n1)N1CCN(c2cnccn2)CC1 [Compound 1a] | 59.6 ± 6.45 | 96.9 ± 16.9 | 44.9 ± 3.77 | 273 ± 35.6 | 219 ± 15.1 | after the initial decline (for 12 h) there is a small increase |  | 22.0 | hypochromism | 3175.6 | 1 | 87.7 ± 43.9 | 9440 |  |  |  |  |  |  |  | 
CN(C)C(=S)NN=C(c1ccccn1)c1ccccn1 [Dp44mT, di-2-pyridylketone 4,4-dimethyl-3-thiosemicarbazone, reference compound] |  |  |  |  |  |  | 41% | 8.2 | hypochromism | 1673.3 | 2 | 1.4 ± 0.13 | 15400 |  |  |  | marked up-regulation | lowest values | 0.31 ± 0.06 | 1.77 ± 0.36 | Selectivity index, calculated for HCT116 (HCT116 [1]): 10985.7; IC50 (MCF-7; [12]): 0.13 ± 0.04 nM; IC50 (MCF-7; [13]): 0.96 ± 0.32 nM; IC50 (MCF-7; [14]): 0.38 ± 0.15 nM; Selectivity index, calculated for MCF-7 (MCF-7): 40473.7; ability to intercalate DNA (calf-thymus DNA (CT-DNA); CT-DNA, absorption spectra): very weak
Fc1ccc(N2CCN(C(=S)NN=Cc3ccc4ccccc4n3)CC2)cc1 [Compound 1b, 4-(4-fluorophenyl)-N’-[(quinolin-2-yl)methylidene]piperazine-1-carbothiohydrazide] |  |  |  |  |  | large drop |  | 24.2 | hypochromism | 2313.3 | 10 |  |  | eight-fold |  |  | increased p21 level, but in a lesser degree | lowest values; also recorded: strongest decreasing effect | 19.7 ± 0.53 | 72.4 ± 12.9 | IC50 (HCT116 [1]; Homo sapiens, HCT-116, 96 h incubation, MTS, read-out: Activity - IC50 HCT116): 62.2 ± 8.95 nM; Selectivity index, calculated for HCT116 (HCT116 [1]): 1.8; IC50 (MCF-7; [12]): 3.78 ± 0.88 nM; IC50 (MCF-7; [13]): 25 ± 2.16 nM; IC50 (MCF-7; [14]): 31.4 ± 3.38 nM; Selectivity index, calculated for MCF-7 (MCF-7): 3.6; IC50 (NHDF [4]): 114 ± 10.3 nM
Oc1cccc2ccc(C=NNC(=S)N3CCN(c4cnccn4)CC3)nc12 [Compound 2b] | 4.17 ± 1.12 | 78.2 ± 14 | 5.49 ± 1.19 | 35.8 ± 5.82 | 32.2 ± 6.85 |  | 33–35% | 9.4 | hypochromism | 1888.9 | 5 | 50.5 ± 28.1 | 12100 |  | higher | strongest |  | increased the expression |  |  | improvement in cytotoxicity after interacting with Cu^2+ (HCT116 [1]; HCT116 cells, 20 µM CuSO4): more than a ten-fold increase

From PMC5915149, “The role of oxidative stress in activity of anticancer thiosemicarbazones” (Oncotarget, 2018)
